Measurements: patent US20260159512A1, “BCAT2 INHIBITORS” (AGIOS PHARMACEUTICALS, INC., priority 2021, published 2026)
pIC50: −log10 of the molar value.

How the values were obtained:
Settings in all cases: average where tested multiple times
BCAT2 [1] = target: T1, BCAT2 (Homo sapiens, UniProt O15382); test: BCAT2 in vitro enzyme inhibition assay (resazurin/diaphorase-coupled fluorescence); assay type: biochemical
T1 sequence (O15382 28-392): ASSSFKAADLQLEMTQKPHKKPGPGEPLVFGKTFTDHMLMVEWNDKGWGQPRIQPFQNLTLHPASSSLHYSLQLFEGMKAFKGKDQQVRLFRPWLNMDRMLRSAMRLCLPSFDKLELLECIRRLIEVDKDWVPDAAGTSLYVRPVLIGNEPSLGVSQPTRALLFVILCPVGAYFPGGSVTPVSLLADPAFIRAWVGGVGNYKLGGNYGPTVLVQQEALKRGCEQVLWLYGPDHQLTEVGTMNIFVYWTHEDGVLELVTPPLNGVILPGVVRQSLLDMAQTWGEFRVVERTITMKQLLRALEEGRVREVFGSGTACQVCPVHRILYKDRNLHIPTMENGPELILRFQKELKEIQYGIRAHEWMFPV
Method in brief: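 Coupled fluorescence readout: glutamate formed from L-leucine/α-ketoglutarate transamination drives GDH/NAD/diaphorase reduction of resazurin (Ex 540/Em 590). Human BCAT2 was first exposed 1 h at room temperature to compound, top final 100 μM in 3-fold, 10-point series; substrate reaction ran 1 h before SDS quench, in technical duplicate with DMSO max and enzyme-free min controls.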

hBCAT1 = target: T2, hBCAT1 (Homo sapiens, UniProt P54687); test: BCAT1 in vitro enzyme inhibition assay (resazurin/diaphorase-coupled fluorescence); assay type: biochemical
T2 sequence (P54687 1-386): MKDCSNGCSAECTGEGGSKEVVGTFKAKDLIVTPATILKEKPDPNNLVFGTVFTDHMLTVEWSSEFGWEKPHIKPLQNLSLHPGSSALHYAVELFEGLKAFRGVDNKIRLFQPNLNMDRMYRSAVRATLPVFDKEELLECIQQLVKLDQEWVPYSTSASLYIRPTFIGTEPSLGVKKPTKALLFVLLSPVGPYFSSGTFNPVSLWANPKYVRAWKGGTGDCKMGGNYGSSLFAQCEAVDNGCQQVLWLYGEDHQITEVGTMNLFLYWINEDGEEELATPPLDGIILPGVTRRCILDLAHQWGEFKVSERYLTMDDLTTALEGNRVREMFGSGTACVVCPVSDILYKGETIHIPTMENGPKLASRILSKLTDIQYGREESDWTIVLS
Method in brief: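 Ten-point, 3-fold compound series (top final 100 μM, delivered 1:50 from 50× DMSO stocks) tested against hBCAT1. Inhibition detected via diaphorase-coupled resazurin fluorescence, duplicate wells, with values from repeated runs averaged.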

BCAT2 [2] = target: T1, BCAT2; test: BCAT2 in vitro cell inhibition using engineered A549 cells (KMV cell assay, 13C6-KMV by LC-MS/MS); assay type: cell-based; design: The result was an engineered A549 cell line that expressed endogenous BCAT2; endogenous in cells; host or cells: A549 cells with MUT and BCAT1 knocked out by CRISPR/CAS9

Structure (SMILES)	pIC50 (BCAT2 [1])	pIC50 (hBCAT1)	pIC50 (BCAT2 [2])
O=C(N[C@H]1CCC[C@@H](n2c(-c3ccccc3F)nc3cnc(-c4nc[nH]n4)cc32)C1)c1ncc(C(F)F)s1 [Example 68, 5-(difluoromethyl)-N-[(1S,3R)-3-[2-(2-fluorophenyl)-6-(1H-1,2,4-triazol-3-yl)imidazo[4,5-c]pyridin-1-yl]cyclohexyl]thiazole-2-carboxamide]	≥ 7.00	> 6.30	≥ 7.00
O=C(N[C@H]1CCC[C@@H](n2c(Nc3ccccn3)nc3cnc(-n4nccn4)cc32)C1)c1ncc(C(F)F)s1 [Example 69, 5-(difluoromethyl)-N-((1S,3R)-3-(2-(pyridin-2-ylamino)-6-(2H-1,2,3-triazol-2-yl)-1H-imidazo[4,5-c]pyridin-1-yl)cyclohexyl)thiazole-2-carboxamide]	6.30 to 7.00	< 5.30	< 6.00
O=C(N[C@H]1CCC[C@@H](n2c(-c3ccccc3F)nc3cnc(-n4nccn4)cc32)C1)c1ncc(Cl)s1 [Example 71, 5-chloro-N-((1S,3R)-3-(2-(2-fluorophenyl)-6-(2H-1,2,3-triazol-2-yl)-1H-imidazo[4,5-c]pyridin-1-yl)cyclohexyl)thiazole-2-carboxamide]	≥ 7.00	> 6.30	≥ 7.00
O=C(N[C@H]1CCC[C@@H](n2c(-c3ccccc3F)nc3cnc(-n4nccn4)cc32)C1)c1ccc(Cl)s1 [Example 72, 5-chloro-N-((1S,3R)-3-(2-(2-fluorophenyl)-6-(2H-1,2,3-triazol-2-yl)-1H-imidazo[4,5-c]pyridin-1-yl)cyclohexyl)thiophene-2-carboxamide]	≥ 7.00	> 6.30	≥ 7.00
O=C(N[C@H]1CCC[C@@H](n2c(Nc3ccccc3)nc3cnc(-n4nccn4)cc32)C1)c1ncc(C(F)F)s1 [Example 73, 5-(difluoromethyl)-N-((1S,3R)-3-(2-(phenylamino)-6-(2H-1,2,3-triazol-2-yl)-1H-imidazo[4,5-c]pyridin-1-yl)cyclohexyl)thiazole-2-carboxamide]	≥ 7.00	< 5.30	< 6.00
CC(C)Cc1nc2cnc(-n3nccn3)cc2n1[C@@H]1CCC[C@H](NC(=O)c2ccc(Cl)s2)C1 [Example 74, 5-chloro-N-((1S,3R)-3-(2-isobutyl-6-(2H-1,2,3-triazol-2-yl)-1H-imidazo[4,5-c]pyridin-1-yl)cyclohexyl)thiophene-2-carboxamide]	≥ 7.00	> 6.30	≥ 7.00
O=C(N[C@H]1CCC[C@@H](n2c(-c3ncccc3F)nc3cnc(-c4nc[nH]n4)cc32)C1)c1ncc(C(F)F)s1 [Example 75, 5-(difluoromethyl)-N-((1S,3R)-3-(2-(3-fluoropyridin-2-yl)-6-(1H-1,2,4-triazol-3-yl)-1H-imidazo[4,5-c]pyridin-1-yl)cyclohexyl)thiazole-2-carboxamide]	≥ 7.00	> 6.30	≥ 7.00
O=C(N[C@H]1CCC[C@@H](n2c(-c3ncccc3F)nc3cnc(-n4nccn4)cc32)C1)c1ccc(Cl)s1 [Example 76, 5-chloro-N-((1S,3R)-3-(2-(3-fluoropyridin-2-yl)-6-(2H-1,2,3-triazol-2-yl)-1H-imidazo[4,5-c]pyridin-1-yl)cyclohexyl)thiophene-2-carboxamide]	≥ 7.00	> 6.30	≥ 7.00
O=C(N[C@H]1CCC[C@@H](n2c(-c3ccccc3F)nc3cnc(-c4ccn[nH]4)cc32)C1)c1ncc(C(F)F)s1 [Example 77, 5-(difluoromethyl)-N-((1S,3R)-3-(2-(2-fluorophenyl)-6-(1H-pyrazol-5-yl)-1H-imidazo[4,5-c]pyridin-1-yl)cyclohexyl)thiazole-2-carboxamide]	≥ 7.00	> 6.30	≥ 7.00
O=C(N[C@H]1CCC[C@@H](n2c(-c3ncccc3F)nc3cnc(-c4ccn[nH]4)cc32)C1)c1ccc(Cl)s1 [Example 78, 5-chloro-N-((1S,3R)-3-(2-(3-fluoropyridin-2-yl)-6-(1H-pyrazol-5-yl)-1H-imidazo[4,5-c]pyridin-1-yl)cyclohexyl)thiophene-2-carboxamide]	≥ 7.00	> 6.30	≥ 7.00
CC(C)Oc1nc2cnc(-n3nccn3)cc2n1[C@@H]1CCC[C@H](NC(=O)c2ncc(C(F)F)s2)C1 [Example 79, 5-(difluoromethyl)-N-((1S,3R)-3-(2-isopropoxy-6-(2H-1,2,3-triazol-2-yl)-1H-imidazo[4,5-c]pyridin-1-yl)cyclohexyl)thiazole-2-carboxamide]	6.30 to 7.00	< 5.30	< 6.00
O=C(N[C@H]1CCC[C@@H](n2c(-c3ncccc3F)nc3cnc(-c4nc[nH]n4)cc32)C1)c1ccc(Cl)s1 [Example 80, 5-chloro-N-((1S,3R)-3-(2-(3-fluoropyridin-2-yl)-6-(1H-1,2,4-triazol-3-yl)-1H-imidazo[4,5-c]pyridin-1-yl)cyclohexyl)thiophene-2-carboxamide]	≥ 7.00	> 6.30	≥ 7.00
O=C(N[C@H]1CCC[C@@H](n2c(-c3ccccc3F)nc3cnc(-c4cn[nH]c4)cc32)C1)c1ncc(Cl)s1 [Example 81, 5-chloro-N-((1S,3R)-3-(2-(2-fluorophenyl)-6-(1H-pyrazol-4-yl)-1H-imidazo[4,5-c]pyridin-1-yl)cyclohexyl)thiazole-2-carboxamide]	≥ 7.00	> 6.30	6.30 to 7.00
O=C(N[C@H]1CCC[C@@H](n2c(-c3ccccc3F)nc3cnc(-c4nn[nH]n4)cc32)C1)c1ccc(Cl)s1 [Example 82, 5-chloro-N-((1S,3R)-3-(2-(2-fluorophenyl)-6-(2H-tetrazol-5-yl)-1H-imidazo[4,5-c]pyridin-1-yl)cyclohexyl)thiophene-2-carboxamide]	≥ 7.00	> 6.30	6.00 to 6.30
O=C(N[C@H]1CCC[C@@H](n2c(-c3ccccc3F)nc3cnc(-c4nc[nH]n4)cc32)C1)c1ncc(Cl)s1 [Example 83, 5-chloro-N-((1S,3R)-3-(2-(2-fluorophenyl)-6-(1H-1,2,4-triazol-3-yl)-1H-imidazo[4,5-c]pyridin-1-yl)cyclohexyl)thiazole-2-carboxamide]	≥ 7.00	> 6.30	≥ 7.00
CC(C)Cc1nc2cnc(-n3nccn3)cc2n1[C@@H]1CCC[C@H](NC(=O)c2ncc(Cl)s2)C1 [Example 84, 5-chloro-N-((1S,3R)-3-(2-isobutyl-6-(2H-1,2,3-triazol-2-yl)-1H-imidazo[4,5-c]pyridin-1-yl)cyclohexyl)thiazole-2-carboxamide]	≥ 7.00	> 6.30	≥ 7.00
O=C(N[C@H]1CCC[C@@H](n2c(-c3ccccc3F)nc3cnc(-c4nc[nH]n4)cc32)C1)c1ncc(C(F)(F)F)s1 [Example 85, N-((1S,3R)-3-(2-(2-fluorophenyl)-6-(1H-1,2,4-triazol-3-yl)-1H-imidazo[4,5-c]pyridin-1-yl)cyclohexyl)-5-(trifluoromethyl)thiazole-2-carboxamide]	≥ 7.00	> 6.30	≥ 7.00
CC(C)Cc1nc2cnc(-c3nc[nH]n3)cc2n1[C@@H]1CCC[C@H](NC(=O)c2ncc(Cl)s2)C1 [Example 86, 5-chloro-N-((1S,3R)-3-(2-isobutyl-6-(1H-1,2,4-triazol-3-yl)-1H-imidazo[4,5-c]pyridin-1-yl)cyclohexyl)thiazole-2-carboxamide]	≥ 7.00	> 6.30	≥ 7.00
COCc1nc2cnc(-c3nc[nH]n3)cc2n1[C@@H]1CCC[C@H](NC(=O)c2ncc(Cl)s2)C1 [Example 91, 5-chloro-N-[(1S,3R)-3-[2-(methoxymethyl)-6-(1H-1,2,4-triazol-3-yl)imidazo[4,5-c]pyridin-1-yl]cyclohexyl]thiazole-2-carboxamide]	6.30 to 7.00	5.30 to 6.00	< 6.00
